Data on four molecules can be found in patent publication US6949561B1, “Steroid 3-O-sulphamate derivatives as inhibitors of oestrone sulphatase” (Sterix Limited, priority 1997, dated 2005).

For series [1] the following is noted: cited from earlier work.
The target in series [2] is T1, Rat Liver Sulphatase (E1-STS) (Rattus norvegicus, UniProt P15589).
T1 construct: from tissue; host or cells: rat liver after oral dosing
T1 sequence (P15589 20-577): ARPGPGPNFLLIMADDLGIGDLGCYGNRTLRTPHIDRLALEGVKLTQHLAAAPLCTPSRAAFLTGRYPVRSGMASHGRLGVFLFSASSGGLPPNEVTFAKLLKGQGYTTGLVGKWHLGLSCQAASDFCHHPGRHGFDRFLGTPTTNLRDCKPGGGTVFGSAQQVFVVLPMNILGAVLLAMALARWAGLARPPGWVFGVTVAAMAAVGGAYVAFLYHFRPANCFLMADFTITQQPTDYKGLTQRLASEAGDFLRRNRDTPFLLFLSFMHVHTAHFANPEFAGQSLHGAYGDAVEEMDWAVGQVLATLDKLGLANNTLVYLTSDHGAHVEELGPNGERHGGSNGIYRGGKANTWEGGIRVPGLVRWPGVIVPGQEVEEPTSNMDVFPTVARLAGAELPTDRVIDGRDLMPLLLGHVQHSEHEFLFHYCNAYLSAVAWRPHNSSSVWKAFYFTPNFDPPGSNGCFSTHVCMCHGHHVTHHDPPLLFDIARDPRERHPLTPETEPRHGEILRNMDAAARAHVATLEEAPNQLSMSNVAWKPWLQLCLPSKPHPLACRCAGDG
The settings on record: administered either orally or subcutaneously; prior art; cited from earlier work.

In series [3] the target is T1, Rat Liver Sulphatase (E1-STS). In words: In vivo inhibition (rat liver sulphatase). The settings on record: 2 mg/Kg/day × 5 days, oral dose.
Series [4] concerns the target T2, Steroid sulphatase (Steryl Sulphatase EC 3.1.6.2; E1-STS) in intact MCF-7 human breast cancer cells (Homo sapiens, UniProt P08842).
T2 construct: endogenous in cells; host or cells: MCF-7 human breast cancer cells
T2 sequence (P08842 22-583): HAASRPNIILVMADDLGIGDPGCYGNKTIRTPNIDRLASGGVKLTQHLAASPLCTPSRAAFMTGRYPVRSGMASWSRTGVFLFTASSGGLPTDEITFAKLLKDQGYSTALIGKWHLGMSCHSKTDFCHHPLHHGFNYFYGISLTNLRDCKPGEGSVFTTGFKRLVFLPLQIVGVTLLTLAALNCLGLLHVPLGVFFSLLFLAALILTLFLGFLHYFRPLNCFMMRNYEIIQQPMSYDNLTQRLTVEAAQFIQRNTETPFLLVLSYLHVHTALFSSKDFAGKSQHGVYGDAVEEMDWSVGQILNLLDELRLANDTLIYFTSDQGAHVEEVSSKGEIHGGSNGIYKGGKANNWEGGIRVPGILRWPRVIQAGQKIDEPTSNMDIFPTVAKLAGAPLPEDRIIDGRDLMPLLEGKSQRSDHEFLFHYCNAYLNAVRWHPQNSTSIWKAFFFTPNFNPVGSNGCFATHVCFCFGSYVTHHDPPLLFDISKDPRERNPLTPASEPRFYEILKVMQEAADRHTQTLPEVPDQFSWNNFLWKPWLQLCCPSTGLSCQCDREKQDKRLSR
Conditions: 0.1 μM; known from prior art; cited from earlier work.

Series [5] has as its target T3, dehydroepiandrosterone sulphatase (DHA-STS) (Rattus norvegicus, UniProt P15589).
T3 construct: host or cells: rat liver (in vivo dosing)
T3 sequence (P15589 20-577): T1 sequence (P15589 20-577)
Conditions: administered either orally or subcutaneously; prior art; cited from earlier work.

In another series the target is T4, E1-STS enzyme (Homo sapiens, UniProt P08842).
T4 sequence (P08842 22-583): T2 sequence (P08842 22-583)
Conditions: prior art; cited from earlier work.

Another series deals with memory. Conditions: rats; prior art; cited from earlier work.

Turning to `C[C@]12CC[C@@H]3c4ccc(OS(=O)(=O)O)cc4CC[C@H]3[C@@H]1CCC2=O` [Compound E1S, oestrone sulphate], the half-life in blood in series [1] is 10 to 12 h.

`CC12CCC3c4ccc(OS(N)(=O)=O)cc4CCC3C1CCC2=O` (stereo not drawn) [EMATE, oestrone-3-sulphamate]: the “inhibition of rat liver E1-STS activity” value in series [2] is 99%. Also, the “In Vivo Inhibition (Rat Liver Sulphatase)” value in series [3] was determined as 99.1±0.2%. For the same molecule, in series [4], the “inhibition of E1-STS activity in intact MCF-7 cells” value was “more than 99%”. The “inhibition of rat liver DHA-STS activity” value in series [5] is on record as 99%. Further, the “mode of E1-STS inhibition” value at E1-STS enzyme is “time- and concentration-dependent manner”. In addition, in the series on memory, the memory enhancing effect entry is listed as “memory enhancing effect”.

For the molecule oestrone-3-N-sulphamate, the “mode of E1-STS inhibition” value at E1-STS enzyme is listed as “weaker non-time-dependent inactivators”.

For oestrone-3-S-sulphamate, the “mode of E1-STS inhibition” value at E1-STS enzyme is recorded as “weaker non-time-dependent inactivators”.
